Results: patent publication US20070054848A1, “Composition and method for nerve regeneration” (priority 2003, published 2007)

How the values were obtained:
[1] = test system: cerebellar granule neurons from P7 rats; test: Neurite outgrowth assay, cerebellar neurons; assay type: cell-based, rat; details: cerebellar granule neurons; data not shown
Rho-kinase [2] = target: T1, Rho-kinase (Bos taurus, UniProt Q28021); test: Rho-kinase kinase assay with lysates of transfected 293T cells; assay type: cell-based; details: 293T cells transfected with myc-Rho-kinase; Y-27632 10 μM for 30 minutes
T1 sequence (Q28021 whole entry): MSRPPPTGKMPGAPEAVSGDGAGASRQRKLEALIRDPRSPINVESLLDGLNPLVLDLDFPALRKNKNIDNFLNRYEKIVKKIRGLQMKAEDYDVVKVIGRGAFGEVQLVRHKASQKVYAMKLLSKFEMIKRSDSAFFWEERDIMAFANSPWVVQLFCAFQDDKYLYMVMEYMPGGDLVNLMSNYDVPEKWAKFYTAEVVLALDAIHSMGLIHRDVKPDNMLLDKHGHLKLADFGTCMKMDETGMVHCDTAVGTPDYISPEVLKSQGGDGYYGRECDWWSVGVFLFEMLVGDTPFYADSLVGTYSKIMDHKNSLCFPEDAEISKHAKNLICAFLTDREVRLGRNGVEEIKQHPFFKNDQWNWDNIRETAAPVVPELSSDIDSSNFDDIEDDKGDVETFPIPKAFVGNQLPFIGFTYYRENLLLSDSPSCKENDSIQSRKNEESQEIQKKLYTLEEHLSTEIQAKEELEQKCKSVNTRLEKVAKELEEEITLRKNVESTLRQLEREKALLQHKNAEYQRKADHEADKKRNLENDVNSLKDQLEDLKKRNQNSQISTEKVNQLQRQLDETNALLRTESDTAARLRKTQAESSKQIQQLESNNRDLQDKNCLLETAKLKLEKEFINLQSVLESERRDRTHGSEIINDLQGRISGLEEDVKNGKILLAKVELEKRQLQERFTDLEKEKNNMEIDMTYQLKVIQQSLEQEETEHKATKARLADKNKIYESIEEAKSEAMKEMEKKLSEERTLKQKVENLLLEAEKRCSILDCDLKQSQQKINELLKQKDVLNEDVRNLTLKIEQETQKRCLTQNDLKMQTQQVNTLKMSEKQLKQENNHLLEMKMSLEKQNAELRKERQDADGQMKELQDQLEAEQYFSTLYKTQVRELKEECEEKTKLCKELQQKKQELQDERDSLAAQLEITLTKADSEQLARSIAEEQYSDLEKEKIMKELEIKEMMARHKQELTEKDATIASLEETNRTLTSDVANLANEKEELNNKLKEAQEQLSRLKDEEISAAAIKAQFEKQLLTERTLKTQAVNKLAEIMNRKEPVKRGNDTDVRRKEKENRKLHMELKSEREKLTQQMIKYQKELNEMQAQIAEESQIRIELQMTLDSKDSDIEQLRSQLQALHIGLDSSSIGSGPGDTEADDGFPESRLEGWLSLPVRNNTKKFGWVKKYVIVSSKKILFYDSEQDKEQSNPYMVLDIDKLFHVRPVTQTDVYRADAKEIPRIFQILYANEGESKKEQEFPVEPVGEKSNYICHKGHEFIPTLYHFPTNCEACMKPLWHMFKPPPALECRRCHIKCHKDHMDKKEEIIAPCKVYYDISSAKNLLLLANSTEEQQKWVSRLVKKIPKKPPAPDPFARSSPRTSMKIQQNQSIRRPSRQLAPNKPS
Experimental: Cells were lysed with lysis buffer (50 mM Tris-HCl (pH 7.5), 150 mM NaCl, 10% glycerol, 1% Nonidet-P40 and protease inhibitor cocktail). The kinase assay was carried out using the lysates.

N1E-115 cells [3] = test: Morphological analysis of N1E-115 cells; assay type: cell-based; details: for neurite formation / population with long neurites: Y-27632 10 μM for 30 minutes, constructs 48 hours after transfection
Experimental: N1E-115 cells were transfected with GFP, GFP-full-p21 or GFP-ΔNLS-p21, and cultured in serum-starved condition for 5 hours. Then, the medium was replaced with DMEM containing 10% fetal bovine serum. The cells were fixed at 48 hours after transfection. The morphology of the cells was categorized into 3 groups; neurite positive cells, round cells and the other cells. The cells with longer neurites than their soma were defined as neurite positive cells. The other cells had various features including microspikes, ruffles and a flattened appearance.

[4] = target: catalytic domain of Rho-kinase (GST-CAT) (Bos taurus, UniProt Q28021); test: In vitro binding assay of p21 and Rho-kinase (GST-CAT); details: co-incubated at the indicated concentrations
Sequence of catalytic domain of Rho-kinase (GST-CAT) (Q28021 6-553 limits assumed): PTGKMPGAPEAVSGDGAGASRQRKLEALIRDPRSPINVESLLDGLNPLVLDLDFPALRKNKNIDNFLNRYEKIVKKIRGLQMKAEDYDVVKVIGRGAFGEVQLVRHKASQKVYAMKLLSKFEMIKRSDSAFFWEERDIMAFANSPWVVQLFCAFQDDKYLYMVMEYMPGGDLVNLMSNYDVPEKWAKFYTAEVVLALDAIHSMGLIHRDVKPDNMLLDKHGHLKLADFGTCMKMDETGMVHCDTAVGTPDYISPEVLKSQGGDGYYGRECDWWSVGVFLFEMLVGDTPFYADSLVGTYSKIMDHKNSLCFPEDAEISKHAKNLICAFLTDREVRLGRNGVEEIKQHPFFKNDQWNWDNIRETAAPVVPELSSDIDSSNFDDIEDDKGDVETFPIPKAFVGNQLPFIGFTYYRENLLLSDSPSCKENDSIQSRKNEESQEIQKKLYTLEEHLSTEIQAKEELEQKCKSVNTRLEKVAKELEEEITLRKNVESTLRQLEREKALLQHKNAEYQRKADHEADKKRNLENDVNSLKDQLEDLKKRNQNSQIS

[5] = target: T2, Recombinant human p75-Fc chimera (Homo sapiens, UniProt P08138); test: Co-precipitation of recombinant p75 and gangliosides; assay type: binding; details: precipitation with protein A sepharose, Western blot
T2 construct: Recombinant p75 extracellular domain fused to Fc purified from Sf21 cells; purchased Genzyme-Techne; host or cells: Sf21 cells
T2 sequence (P08138 29-250 limits assumed): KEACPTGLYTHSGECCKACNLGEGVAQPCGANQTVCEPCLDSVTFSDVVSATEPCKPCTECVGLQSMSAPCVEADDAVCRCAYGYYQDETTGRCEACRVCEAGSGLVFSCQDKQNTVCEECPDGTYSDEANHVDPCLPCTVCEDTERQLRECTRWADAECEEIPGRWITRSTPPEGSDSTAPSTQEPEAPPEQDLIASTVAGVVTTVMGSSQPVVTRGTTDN
Experimental: Recombinant human p75-Fc chimera (1 μg; Genzyme-Techne) and 1 μg of purified ganglioside GT1b (>98% purity, Seikagaku Co.) were incubated in 200 μl 0.025% Tween20/PBS for 2 h, and p75 was precipitated using proteinA sepharose (Amersham Pharmacia Biotech). The resultant precipitates were electrophoretically transferred to polyvinylidene difluoride membranes after SDS-PAGE with 7% gels and were immunoblotted with anti GT1b antibody (IgM, Seikagaku Co.) or anti p75 antibody.

RhoA = test: Affinity-precipitation of GTP-RhoA in cerebellar neurons; assay type: cell-based, mice; details: post-natal cerebellar neurons, wild type; MAG-Fc 25 μg/ml, Nogo peptide 4 μM
Experimental: 293 cells were transfected with pcDNA3 vectors containing wild type RhoA whose NH2-terminus is tagged with HA (Yamashita, T. et al., Neuron. 24:585-593, 1999) and/or full-length human p75 by lipofection using Lipofectamine 2000 (Gibco BRL). Cerebellar neurons from P9 mice were isolated as described previously (Cai et. al, Neuron, 22:89-101, 1999). Cells were lysed in 50 mM Tris (pH 7.5), 1% Triton X-100, 0.5% sodium deoxycholate, 0.1% SDS, 500 mM NaCl, 10 mM MgCl2, with leupeptin and aprotinin, each at 10 μg/ml. Cell lysates were clarified by centrifugation at 13,000×g at 4° C. for 10 min, and the supernatants were incubated with the 20 μg of GST-Rho binding domain of Rhotekin beads (Upstate Biotech.) at 4° C. for 45 min. The beads were washed 4 times with washing buffer (50 mM Tris (pH 7.5) containing 1% Triton X-100, 150 mM NaCl, 10 mM MgCl2, 10 μg/ml each of leupeptin and aprotinin). Bound Rho proteins were detected by Western blotting using a monoclonal antibody against RhoA (Santa Cruz Biotechnology).
Amino-terminally FLAG-tagged human p75 or the deletion mutants of p75 ICD were cloned into pcDNA3.1 expression plasmid, and were transfected with 293T cells. […] Bound Rho proteins were detected by Western blotting using a monoclonal antibody against RhoA (Santa Cruz Biotechnology).

[6] = target: T3, interaction of p75 with Rho GDI (Homo sapiens, UniProt P08138); test: Co-immunoprecipitation of p75 with Rho GDI or RhoA in transfected N1E-115 cells; assay type: cell-based; details: N1E-115 cells transfected with FLAG-tagged p75; Nogo peptide 4 μM, MAG-Fc 25 μg/ml, NGF 100 ng/ml
T3 construct: expressed in transfected cells; host or cells: N1E-115 cells
T3 sequence (P08138 29-427): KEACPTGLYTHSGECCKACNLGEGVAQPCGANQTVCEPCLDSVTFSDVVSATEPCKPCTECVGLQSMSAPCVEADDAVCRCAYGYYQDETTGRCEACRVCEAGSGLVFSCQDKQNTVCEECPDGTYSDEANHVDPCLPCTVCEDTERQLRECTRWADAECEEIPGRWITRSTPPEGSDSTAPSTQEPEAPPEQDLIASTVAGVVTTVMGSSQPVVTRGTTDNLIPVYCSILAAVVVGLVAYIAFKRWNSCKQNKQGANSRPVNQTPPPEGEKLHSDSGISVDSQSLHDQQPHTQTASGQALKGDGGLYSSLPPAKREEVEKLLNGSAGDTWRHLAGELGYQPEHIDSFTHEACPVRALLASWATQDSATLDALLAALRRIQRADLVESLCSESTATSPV

cerebellar neurons = test: Neurite outgrowth assay, post-natal cerebellar neurons; assay type: cell-based, mice; details: cerebellar neurons transfected with myc-tagged Rho GDI
p75 = target: T4, p75 (Homo sapiens, UniProt P08138); test: Co-precipitation of p75 and Rho GDI with purified recombinant proteins; assay type: binding; details: p75 precipitated from transfected 293T cells; purified recombinant proteins
T4 construct: host or cells: 293T cells (p75)
T4 sequence (P08138 29-427): T3 sequence (P08138 29-427)

N1E-115 cells [7] = test: Growth and differentiation of N1E-115 cells; assay type: cell-based; details: for proliferation of N1E-115 cells: until 48 hours after transfection
Experimental: Cells were seeded in 6-cm dishes, transfected, and were counted 1 and 2 days after transfection. The relative increases in the number of the cells are shown. The values are means±SEM of 3 independent experiments. *, p<0.01 compared with full-p21 (Student's t-test). There is no significant difference between GFP and GFP-ΔNLS-p21 transfected cells. […] N1E-115 cells were treated with DMSO, or transfected with GFP-full-p21 or GFP-ΔNLS-p21, then were harvested at 1, 2, 3 and 4 days. Arrowheads indicate hyperphosphorylated pRb, and the arrow indicates underphosphorylated pRb. […] Shown are photomicrographs of the cells transfected with each construct. […] N1E-115 cells exposed to Y-27632 (10 μM) for 30 minutes or expressing GFP, GFP-full-p21 or GFP-ΔNLS-p21 were categorized into 3 groups; the cells with long neurites (long neurite), cells with a round form (round), and cells with other forms (others). Data represent means±SEM of 3 independent experiments. *, p<0.05 compared with control. **, p<0.01 compared with control as well as full-p21 (Student's t-test).
(§1) NIH3T3 cells, N1E-115 cells and 293T cells were maintained in DMEM containing 10% fetal bovine serum. Lipofectamine 2000 (Invitrogen) was used for transfection. For the stress fiber formation assay, NIH3T3 cells were cultured in serum-free medium for 16 hours after transfection. Stress fiber formation was evoked by incubating the cells with 10% serum for 10 minutes. Hippocampal neurons were prepared from 18-day-old Sprague-Dawley rats, as previously described (Neumann, H. et al., Science. 269:549-552, 1995). Briefly, hippocampi were dissected and the meninges removed. The trimmed tissue was dissociated by trituration. The dissociated cells were plated on dishes pre-coated with poly-L-lysine (Sigma), and cultured in DMEM containing 10% fetal bovine serum for 24 hours. Then, the medium was replaced with DMEM with B27 supplement (Invitrogen), and the cells were transfected with GFP or GFP-ΔNLS-p21. Neuronal morphology was estimated at 24 hours after the transfection.

NIH3T3 cells = test: Stress fiber formation assay in NIH3T3 cells; assay type: cell-based; details: serum-starved 16 hours, 10% serum 10 minutes
Experimental: as §1

Rho-kinase [8] = target: T1, Rho-kinase; test: Co-immunoprecipitation of p21 constructs and Rho-kinase in 293T cells; assay type: cell-based; details: anti-p21 antibody
Experimental: 293T cells were transfected with myc-Rho-kinase in combination with GFP-full-p21 or GFP-ΔNLS-p21. At 48 hours after transfection, the cells were lysed with 1 ml of lysis buffer (50 mM Tris-HCl (pH 7.5), 150 mM NaCl, 10% glycerol, 0.5% Nonidet-P40 including protease inhibitor cocktail tablets (Roche). The cell lysates were centrifuged at 13,000×g for 20 minutes, and the supernatant was collected. Immunoprecipitations were performed for 2 hours at 4° C. using an anti-p21 mouse monoclonal antibody (Santa Cruz Biotechnology) and 0.75 ml of the supernatant. The immunocomplexes were collected with protein G-Sepharose (Amersham Pharmacia Biotech) slurry (50% v/v), washed 4 times with lysis buffer, and subjected to SDS-PAGE. They were transferred to the polyvinylidene difluoride membranes and probed with the anti-myc rabbit polyclonal antibody (Santa Cruz Biotechnology). Interaction of endogenous proteins in N1E-115 cells was assessed in the same way using anti Rho-kinase antibody.

hippocampal neurons = test: Neurite outgrowth and branching of hippocampal neurons; assay type: cell-based; details: rat E18 hippocampal neurons, 24 hours after transfection
Experimental: as §1
Cultures of the hippocampal neurons from rat E18 embryos were used. […] Twenty-four hours after transfection, the cells were fixed and immunolabeled with β-tubulin III. The total neurite length per neuron, the axonal length, defined as the length of the longest neurite per neuron, the number of primary processes originating from the neuronal somata, and the number of branch points per neuron were determined (Neumann, H. et al., J. Neurosci. 22:854-862, 2002).

Cn1c2ccccc2c2c3c(c4c5ccccc5n(CCC#N)c4c21)CNC3=O [G06976]
neurite outgrowth response to MAG-Fc or Nogo peptide with another PKC inhibitor [1]: Same results were obtained

C[C@@H](N)[C@H]1CC[C@H](C(=O)Nc2ccncc2)CC1 [Y-27632, reference compound]
Rho-kinase activity (compared to the original) (Rho-kinase [2]): 51.9%
neurite formation / population with long neurites (N1E-115 cells [3]): induced significant neurite formation
interaction of p21 with Rho-kinase [4]: inhibited the interaction of p21 with Rho-kinase in a dose dependent manner

AKRRRLSSLRA [S6 kinase substrate peptide]
interaction of p21 with Rho-kinase [4]: inhibited the interaction of p21 with Rho-kinase in a dose dependent manner

GD1a
association with recombinant p75 extracellular domain fused to Fc [5]: did not see any interaction

GT1b
association with recombinant p75 extracellular domain fused to Fc [5]: binds to p75 in a manner that is SDS-resistant

NGF: Nerve growth factor [reference compound]
RhoA activity (RhoA): rapidly inhibits RhoA activity
interaction of p75 with Rho GDI as well as RhoA [6]: abolished the interaction

Rho GDI: Rho GDP dissociation inhibitor; recombinant protein or myc-tagged Rho GDI plasmid over-expression
effect of over-expression on inhibition of neurite outgrowth by MAG and the Nogo peptide (cerebellar neurons): abolished these inhibitory effects
direct physical interaction with p75 (p75): bound to p75

RhoA: bacterially produced RhoA, GDP-bound, GTP-bound or nucleotide-depleted
direct physical interaction with p75 (p75): no interaction between them in any nucleotide state

full-length p21: pEGFP-full-p21 (aa 1-164), mammalian expression vector for GFP fused protein
Rho-kinase activity (compared to the original) (Rho-kinase [2]): no significant effect
neurite formation / population with long neurites (N1E-115 cells [3]): no increase in the cell population that had long neurites
proliferation of N1E-115 cells (N1E-115 cells [7]): stopped proliferation
actin stress fiber formation after the addition of serum (NIH3T3 cells): Extensive actin stress fibers were observed
co-immunoprecipitation of myc-tagged Rho-kinase (Rho-kinase [8]): only a faint signal could be detected

ΔNLS-p21: p21 with loss of nuclear localization signal (aa 1-140), expressed as GFP fused protein
Rho-kinase activity (compared to the original) (Rho-kinase [2]): 48.1%
cells that extended long neurites (N1E-115 cells [3]; 48 hours after transfection): more than 45%
increase of cells with long neurites compared to the control (N1E-115 cells [3]; 48 hours after transfection): 3.1 fold
differentiation inducing activity (N1E-115 cells [7]; cyclin D3 and pRb Western blot): has no differentiation inducing activity
proliferation of N1E-115 cells (N1E-115 cells [7]): proliferated until 48 hours after transfection
actin stress fiber formation after the addition of serum (NIH3T3 cells): little stress fiber formation
co-immunoprecipitation of myc-tagged Rho-kinase (Rho-kinase [8]): efficiently precipitated myc-tagged Rho-kinase
number of primary processes (hippocampal neurons): no change in the number of primary processes
number of branch points per neuron (hippocampal neurons; control 1.3): 2.6
axonal length (length of the longest neurite per neuron) (hippocampal neurons; control 66.3): 162.9 μm
total neurite length per neuron (hippocampal neurons; control 135.9): 307.2 μm
